Experimental data published in the supplement of paper PMC12137928.
Counter-ions that a name gives are not always drawn.

Test system: HCT116
Details: 72 h
Procedure, shortened: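 Luminescence was read with CellTiter-Glo in HCT116 cells seeded at 250 per well in 1536-well plates. Signals were scaled between vehicle at 0% and positive control at -100%, then pattern-corrected. IC50 and maximal efficacy were obtained by fitting a four-parameter Hill equation.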

Compound | IC50 cell viability (ICRF193 0 nM) [µM] | IC50 cell viability (ICRF193 200 nM) [µM]
Cc1nc(=O)c2cc(CN(C)c3ccc(C(=O)N[C@@H](CCC(=O)O)C(=O)O)s3)ccc2[nH]1 [Raltitrexed] | > 45.8 | > 45.8
O=C(O)CCn1c2c(c3ccccc31)C[C@H](NS(=O)(=O)c1ccc(F)cc1)CC2 [Ramatroban] | > 45.8 | > 45.8
CCC(=O)NCC[C@@H]1CCc2ccc3c(c21)CCO3 [Ramelteon] | > 45.8 | > 45.8
CCOC(=O)[C@H](CCc1ccccc1)N[C@@H](C)C(=O)N1[C@H](C(=O)O)C[C@@H]2CCC[C@@H]21 [Ramipril] | > 45.8 | > 45.8
Cn1cc(C(=O)[C@@H]2CCc3[nH]cnc3C2)c2ccccc21 [Ramosetron hydrochloride] | > 45.8 | > 45.8
CNC(=C[N+](=O)[O-])NCCSCc1ccc(CN(C)C)o1 [Ranitidine] | > 45.8 | > 45.8
COc1ccccc1OCC(O)CN1CCN(CC(=O)Nc2c(C)cccc2C)CC1 (configuration not stated) [Ranolazine] | > 45.8 | > 45.8
C=CC[N+]1([C@H]2C[C@H]3[C@@H]4CC[C@H]5C[C@H](OC(C)=O)[C@@H](N6CCCCC6)C[C@]5(C)[C@H]4CC[C@]3(C)[C@H]2OC(=O)CC)CCCCC1 [Rapacuronium bromide] | > 45.8 | > 45.8
C#CCN[C@@H]1CCc2ccccc21 [Rasagiline mesylate] | > 45.8 | > 45.8
O=C(NC(Cc1cc(=O)[nH]c2ccccc12)C(=O)O)c1ccc(Cl)cc1 (configuration not stated) [Rebamipide] | > 45.8 | > 45.8
CCOc1ccccc1OC(c1ccccc1)C1CNCCO1 (configuration not stated) [Reboxetine mesylate] | > 45.8 | > 45.8
CCOc1cc(CC(=O)N[C@@H](CC(C)C)c2ccccc2N2CCCCC2)ccc1C(=O)O [Repaglinide] | > 45.8 | > 45.8
COC(=O)[C@H]1[C@H]2C[C@@H]3c4[nH]c5cc(OC)ccc5c4CCN3C[C@H]2C[C@@H](OC(=O)/C=C/c2cc(OC)c(OC)c(OC)c2)[C@@H]1OC [Rescinnamin] | > 45.8 | > 45.8
CCCC(=O)O[C@]1(C(=O)CC)CC[C@H]2[C@@H]3CCC4=CC(=O)CC[C@]4(C)[C@H]3[C@@H](O)C[C@@]21C [Resocortol butyrate] | > 45.8 | > 45.8
CC(=O)Oc1cccc(O)c1 [Resorcinol monoacetate] | > 45.8 | > 45.8
C=C[C@]1(C)C[C@@H](OC(=O)CS[C@@H]2C[C@H]3CC[C@@H](C2)N3C)[C@]2(C)[C@H](C)CC[C@]3(CCC(=O)[C@H]32)[C@@H](C)[C@@H]1O [Retapamulin] | > 45.8 | > 45.8
CCCCCCCCCCCCCCCC(=O)OC/C=C(C)/C=C/C=C(C)/C=C/C1=C(C)CCCC1(C)C [Retinyl palmitate] | > 45.8 | > 45.8
NC(=O)c1ncn([C@@H]2O[C@H](CO)[C@@H](O)[C@H]2O)n1 [Ribavirin] | > 45.8 | > 45.8
CN(C)C(=O)c1cc2cnc(Nc3ccc(N4CCNCC4)cn3)nc2n1C1CCCC1 [Ribociclib (LEE011)] | > 45.8 | > 45.8

Compound | IC50 cell viability (ICRF193 0 nM) [µM] | IC50 cell viability (ICRF193 200 nM) [µM]
NC[C@H]1O[C@H](O[C@H]2[C@H](O[C@@H]3O[C@H](CO)[C@@H](O)[C@H]3O)[C@@H](O)[C@H](N)C[C@@H]2N)[C@H](N)[C@@H](O)[C@@H]1O [Ribostamycin sulfate] | > 45.8 | > 45.8
CO[C@H]1/C=C/O[C@@]2(C)Oc3c(C)c(O)c4c(c3C2=O)C2=NC3(CCN(CC(C)C)CC3)NC2=C(NC(=O)/C(C)=C\C=C\[C@H](C)[C@H](O)[C@@H](C)[C@@H](O)[C@@H](C)[C@H](OC(C)=O)[C@@H]1C)C4=O [Rifabutin] | > 45.8 | > 45.8
CO[C@H]1/C=C/O[C@@]2(C)Oc3c(C)c(O)c4c(O)c(c(/C=N/N5CCN(C6CCCC6)CC5)c(O)c4c3C2=O)NC(=O)/C(C)=C\C=C\[C@H](C)[C@H](O)[C@@H](C)[C@@H](O)[C@@H](C)[C@H](OC(C)=O)[C@@H]1C [Rifapentine] | > 45.8 | > 45.8
CO[C@H]1/C=C/O[C@@]2(C)Oc3c(C)c(O)c4c(O)c(c5c(nc6cc(C)ccn65)c4c3C2=O)NC(=O)/C(C)=C\C=C\[C@H](C)[C@H](O)[C@@H](C)[C@@H](O)[C@@H](C)[C@H](OC(C)=O)[C@@H]1C [Rifaximin] | > 45.8 | > 45.8
CC(N)C12CC3CC(CC(C3)C1)C2 (configuration not stated) [Rimantadine] | > 45.8 | > 45.8
CCC(=O)[C@@]1(C)[C@H](C)C[C@H]2[C@@H]3CCC4=CC(=O)C=C[C@]4(C)[C@H]3[C@@H](O)C[C@@]21C [Rimexolone] | > 45.8 | > 45.8
COC(=O)N(C)c1c(N)nc(-c2nn(Cc3ccccc3F)c3ncccc23)nc1N [Riociguat] | > 45.8 | > 45.8
C[C@H]1CNCCCN1S(=O)(=O)c1cccc2cncc(F)c12 [Ripasudil] | > 45.8 | > 45.8
CCCCCOc1ccc(C2SC(=O)NC2=O)cc1OCC (configuration not stated) [Risarestat] | > 45.8 | > 45.8
O=P(O)(O)C(O)(Cc1cccnc1)P(=O)(O)O [Risedronate sodium] | > 45.8 | > 45.8
Cc1nc2n(c(=O)c1CCN1CCC(c3noc4cc(F)ccc34)CC1)CCCC2 [Risperidone] | > 45.8 | > 45.8
CC(NCCc1ccc(O)cc1)C(O)c1ccc(O)cc1 (configuration not stated) [Ritodrine hydrochloride] | > 45.8 | > 45.8
O=C(NC[C@H]1CN(c2ccc(N3CCOCC3=O)cc2)C(=O)O1)c1ccc(Cl)s1 [Rivaroxaban] | > 45.8 | > 45.8
CCN(C)C(=O)Oc1cccc([C@H](C)N(C)C)c1 [Rivastigmine tartrate] | > 45.8 | > 45.8
CN(C)CCc1c[nH]c2ccc(Cn3cncn3)cc12 [Rizatriptan Benzoate] | > 45.8 | > 45.8
Cc1cccc(C)c1N(CCCc1cccnc1)C(=O)C(C)N (configuration not stated) [Ro 22-9194] | > 45.8 | > 45.8
N=C(N/N=C/c1ccc(Cl)cc1)N/N=C/c1ccc(Cl)cc1 [Robenidine] | > 45.8 | > 45.8
C=CC[N+]1([C@H]2C[C@H]3[C@@H]4CC[C@H]5C[C@H](O)[C@@H](N6CCOCC6)C[C@]5(C)[C@H]4CC[C@]3(C)[C@H]2OC(C)=O)CCCC1 [Rocuronium bromide] | > 45.8 | > 45.8
CS(=O)(=O)c1ccc(C2=C(c3ccccc3)C(=O)OC2)cc1 [Rofecoxib] | > 45.8 | > 45.8

Compound | IC50 cell viability (ICRF193 0 nM) [µM] | IC50 cell viability (ICRF193 200 nM) [µM]
O=C(Nc1c(Cl)cncc1Cl)c1ccc(OC(F)F)c(OCC2CC2)c1 [Roflumilast] | > 45.8 | > 45.8
COc1ccc(C2CNC(=O)C2)cc1OC1CCCC1 (configuration not stated) [Rolipram] | > 45.8 | > 45.8
CN(C)[C@@H]1C(O)=C(C(=O)NCN2CCCC2)C(=O)[C@@]2(O)C(O)=C3C(=O)c4c(O)cccc4[C@@](C)(O)[C@H]3C[C@@H]12 [Rolitetracycline] | > 45.8 | > 45.8
CCCN(CCC)CCc1cccc2c1CC(=O)N2 [Ropinirole] | > 45.8 | > 45.8
CCCN1CCCC[C@H]1C(=O)Nc1c(C)cccc1C [Ropivacaine hydrochloride] | > 45.8 | > 45.8
CN(CCOc1ccc(CC2SC(=O)NC2=O)cc1)c1ccccn1 (configuration not stated) [Rosiglitazone] | > 45.8 | > 45.8
CC(C)c1nc(N(C)S(C)(=O)=O)nc(-c2ccc(F)cc2)c1/C=C/[C@@H](O)C[C@@H](O)CC(=O)O [Rosuvastatin calcium (Crestor)] | > 45.8 | > 45.8
CCCN(CCc1cccs1)[C@H]1CCc2c(O)cccc2C1 [Rotigotine] | > 45.8 | > 45.8
CC(=O)OCC(=O)NCCCOc1cccc(CN2CCCCC2)c1 [Roxatidine acetate hydrochloride] | > 45.8 | > 45.8
CC[C@H]1OC(=O)[C@H](C)[C@@H](O[C@H]2C[C@@](C)(OC)[C@@H](O)[C@H](C)O2)[C@H](C)[C@@H](O[C@@H]2O[C@H](C)C[C@H](N(C)C)[C@H]2O)[C@](C)(O)C[C@@H](C)/C(=N\OCOCCOC)[C@H](C)[C@@H](O)[C@]1(C)O [Roxithromycin] | > 45.8 | > 45.8
CNCc1ccc(-c2[nH]c3cc(F)cc4c3c2CCNC4=O)cc1 [Rucaparib] | > 45.8 | > 45.8
NC(=O)c1cn(Cc2c(F)cccc2F)nn1 [Rufinamide] | > 45.8 | > 45.8
C[C@@H]1O[C@@H](OC[C@H]2O[C@@H](Oc3c(-c4ccc(O)c(O)c4)oc4cc(O)cc(O)c4c3=O)[C@H](O)[C@@H](O)[C@@H]2O)[C@H](O)[C@H](O)[C@H]1O [Rutin trihydrate] | > 45.8 | > 45.8
CCOC(=O)/C=C(C)/C=C/C[C@@H](C)CCCC(C)C [S-Hydroprene] | > 45.8 | > 45.8
CC(OC(=O)OC1CCCCC1)OC(=O)C1=C(CSc2nnnn2CCN(C)C)CS[C@@H]2[C@H](NC(=O)Cc3csc(N)n3)C(=O)N12 (some centres not stated) [SCE 2174] | > 45.8 | > 45.8
CCCCCCCCCCCCOC(=O)CS(=O)(=O)O [SODIUM LAURYL SULFOACETATE] | > 45.8 | > 45.8
CCCCC(CC)CCC(CC(C)C)OS(=O)(=O)O (configuration not stated) [SODIUM TETRADECYL SULFATE] | > 45.8 | > 45.8
O=C1C(CC[S+]([O-])c2ccccc2)C(=O)N(c2ccccc2)N1c1ccccc1 (configuration not stated) [SULFINPYRAZONE] | > 45.8 | > 45.8
